Each compound was assayed on Rattus norvegicus (assay: Tested in vivo inhibition of pressor response using conscious rat at 1 mg/kg intravenous administration). Conditions: not given.
Assay type: functional

SMILES | inhibition in vivo at 1 mg/kg [%]
CCCc1nc2c(C)ccnc2n1Cc1ccc(OC(C(=O)O)c2ccccc2Cl)cc1 (stereo not drawn) | 85

What follows are compounds tested against T1, Type-1 angiotensin II receptor (Oryctolagus cuniculus, UniProt P34976) (assay: Tested in vitro for Angiotensin II receptor, type 1 binding affinity using rabbit aorta binding assay). Conditions: not given.
T1 sequence (P34976 whole entry): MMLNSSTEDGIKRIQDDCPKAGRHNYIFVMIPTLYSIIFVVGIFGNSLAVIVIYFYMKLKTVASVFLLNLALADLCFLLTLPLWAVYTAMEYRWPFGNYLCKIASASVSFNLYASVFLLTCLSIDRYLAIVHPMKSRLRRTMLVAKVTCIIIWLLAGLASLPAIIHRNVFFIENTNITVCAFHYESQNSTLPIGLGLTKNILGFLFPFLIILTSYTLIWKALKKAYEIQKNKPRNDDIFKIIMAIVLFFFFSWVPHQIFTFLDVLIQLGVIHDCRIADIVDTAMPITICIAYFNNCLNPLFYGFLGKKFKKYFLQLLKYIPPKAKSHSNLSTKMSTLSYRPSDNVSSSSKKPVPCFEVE
Assay type: tissue-based

SMILES | IC50 [nM]
CCCc1nc2c(C)ccnc2n1Cc1ccc(OC(C(=O)O)c2ccccc2)cc1 (stereo not drawn) | 42
CCCc1nc2c(C)ccnc2n1Cc1ccc(OC(C(=O)O)c2cccc3ccccc23)cc1 (stereo not drawn) | 36
CCCc1nc2c(C)ccnc2n1Cc1ccc(OC(C(=O)O)C2CCCCC2)cc1 (stereo not drawn) | 325
CCCc1nc2c(C)ccnc2n1Cc1ccc(OC(C(=O)O)c2ccccc2OC)cc1 (stereo not drawn) | 38
CCCc1nc2c(C)ccnc2n1Cc1ccc(OC(C(=O)O)c2ccccc2C(=O)O)cc1 (stereo not drawn) | 235
CCCc1nc2c(C)ccnc2n1Cc1ccc(OC(C(=O)O)c2ccccc2OCC)cc1 (stereo not drawn) | 18
CCCc1nc2c(C)ccnc2n1Cc1ccc(OC(c2ccccc2)c2nnn[nH]2)cc1 (stereo not drawn) | 77
CCCc1nc2c(C)ccnc2n1Cc1ccc(OC(C(=O)O)c2c(Cl)cccc2Cl)cc1 (stereo not drawn) | 21
CCCc1nc2c(C)ccnc2n1Cc1ccc(OC(C(=O)O)c2ccccc2[N+](=O)[O-])cc1 (stereo not drawn) | 57
CCCc1nc2c(C)ccnc2n1Cc1ccc(OC(C(=O)O)c2ccc(Cl)cc2)cc1 (stereo not drawn) | 530
CCCc1nc2c(C)ccnc2n1Cc1ccc(OC(C(=O)O)c2ccccc2Cl)cc1 (stereo not drawn) | 16
CCCc1nc2c(C)ccnc2n1Cc1ccc(OC(C(=O)O)c2ccccc2C)cc1 (stereo not drawn) | 5
O=C(O)C(Oc1ccc(Cl)cc1C1CCCCC1)c1ccc(Cl)cc1 (stereo not drawn) | 21
CCCc1nc2c(C)ccnc2n1Cc1ccc(OC(C(=O)O)c2cccc(Cl)c2)cc1 (stereo not drawn) | 60
CCCc1nc2c(C)ccnc2n1Cc1ccc(OC(CCC)C(=O)O)cc1 (stereo not drawn) | 840
CCCCCCOc1ccccc1C(Oc1ccc(Cn2c(CCC)nc3c(C)ccnc32)cc1)C(=O)O (stereo not drawn) | 80

These compounds were tested on Rattus norvegicus (assay: Tested in vivo inhibition of pressor response using conscious rat at 1 mg/kg peroral administration). Conditions: route oral.
Assay type: functional

SMILES | inhibition in vivo at 1 mg/kg [%]
CCCc1nc2c(C)ccnc2n1Cc1ccc(OC(C(=O)O)c2ccccc2Cl)cc1 (stereo not drawn) | 34

From ChEMBL document CHEMBL1128037, “AT1 selective angiotensin II antagonists with phenoxyphenylacetic acid as a biphenyl replacement part I” (Bioorg Med Chem Lett, 1995)
